Test results: PubChem BioAssay (NCI)
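Cells were grown in 96-well plates and exposed to each compound for 48 hours at five concentrations; endpoints were interpolated linearly between bracketing concentrations, or set to the highest concentration if not reached. Abbreviation: GI50, concentration required for 50% inhibition of growth. Definition used: TGI = concentration required for complete inhibition of growth.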

How the values were obtained:
Experiment in all cases: inhibition of tumour cell growth, NCI panel, 48 h
SK-OV-3 ovarian = tested on: SK-OV-3 ovarian
HCT-116 colon = tested on: HCT-116 colon
LOX IMVI melanoma = tested on: LOX IMVI melanoma
SNB-19 CNS = tested on: SNB-19 CNS
BT-549 breast = tested on: BT-549 breast
786-0 renal = tested on: 786-0 renal
NCI-H23 lung = tested on: NCI-H23 lung
TK-10 renal = tested on: TK-10 renal
OVCAR-8 ovarian = tested on: OVCAR-8 ovarian
HOP-92 NSCLC = tested on: HOP-92 NSCLC
EKVX NSCLC = tested on: EKVX NSCLC
CCRF-CEM leukemia = tested on: CCRF-CEM leukemia
A549 NSCLC = tested on: A549 NSCLC
UACC-257 melanoma = tested on: UACC-257 melanoma
HCC-2998 colon = tested on: HCC-2998 colon
NCI-H226 lung = tested on: NCI-H226 lung
HT29 colon = tested on: HT29 colon
U251 CNS = tested on: U251 CNS
IGROV1 ovarian = tested on: IGROV1 ovarian
UO-31 renal = tested on: UO-31 renal
NCI-H522 lung = tested on: NCI-H522 lung
PC-3 prostate = tested on: PC-3 prostate
DU-145 prostate = tested on: DU-145 prostate
T-47D breast = tested on: T-47D breast
SK-MEL-5 melanoma = tested on: SK-MEL-5 melanoma
MDA-MB-231 breast = tested on: MDA-MB-231 breast
MDA-MB-435 = tested on: MDA-MB-435
HOP-62 NSCLC = tested on: HOP-62 NSCLC
SW-620 colon = tested on: SW-620 colon
OVCAR-3 ovarian = tested on: OVCAR-3 ovarian
RXF 393 renal = tested on: RXF 393 renal
HL-60(TB) leukemia = tested on: HL-60(TB) leukemia
M14 melanoma = tested on: M14 melanoma
SNB-75 CNS = tested on: SNB-75 CNS
NCI-H460 lung = tested on: NCI-H460 lung
OVCAR-4 ovarian = tested on: OVCAR-4 ovarian
A498 renal = tested on: A498 renal
HS 578T breast = tested on: HS 578T breast
MCF7 breast = tested on: MCF7 breast
SF-268 CNS = tested on: SF-268 CNS
SR leukemia = tested on: SR leukemia
SN12C renal = tested on: SN12C renal
SK-MEL-28 melanoma = tested on: SK-MEL-28 melanoma
MOLT-4 leukemia = tested on: MOLT-4 leukemia
SF-295 CNS = tested on: SF-295 CNS
OVCAR-5 ovarian = tested on: OVCAR-5 ovarian
COLO 205 colon = tested on: COLO 205 colon
HCT-15 colon = tested on: HCT-15 colon
UACC-62 melanoma = tested on: UACC-62 melanoma
MALME-3M melanoma = tested on: MALME-3M melanoma
SK-MEL-2 melanoma = tested on: SK-MEL-2 melanoma
CAKI-1 renal = tested on: CAKI-1 renal
KM12 colon = tested on: KM12 colon
SF-539 CNS = tested on: SF-539 CNS
NCI/ADR-RES ovarian = tested on: NCI/ADR-RES ovarian
RPMI-8226 leukemia = tested on: RPMI-8226 leukemia
ACHN renal = tested on: ACHN renal
K-562 leukemia = tested on: K-562 leukemia

What does the source list for `CCCCCCCCC(=O)OCC(CS[As](C)C)OC(=O)CCCCCCCC` (centres undefined)?
GI50 (SK-OV-3 ovarian): 16.5 µM; TGI (SK-OV-3 ovarian): > 67.6 µM; GI50 (HCT-116 colon): 0.373 µM; TGI (HCT-116 colon): 11.3 µM; GI50 (LOX IMVI melanoma): 1.09 µM; TGI (LOX IMVI melanoma): 5.7 µM; GI50 (SNB-19 CNS): 11.5 µM; TGI (SNB-19 CNS): 42.9 µM; GI50 (BT-549 breast): 4.78 µM; TGI (BT-549 breast): 19.1 µM; GI50 (786-0 renal): 1.16 µM; TGI (786-0 renal): > 40.1 µM; GI50 (NCI-H23 lung): 0.593 µM; TGI (NCI-H23 lung): 1.5 µM; GI50 (TK-10 renal): 0.364 µM; TGI (TK-10 renal): 3.14 µM; GI50 (OVCAR-8 ovarian): 1.75 µM; TGI (OVCAR-8 ovarian): 5.3 µM; GI50 (HOP-92 NSCLC): 1.93 µM; TGI (HOP-92 NSCLC): 18.3 µM; GI50 (EKVX NSCLC): 2.45 µM; TGI (EKVX NSCLC): 19 µM; GI50 (CCRF-CEM leukemia): 0.396 µM; TGI (CCRF-CEM leukemia): 11.5 µM; GI50 (A549 NSCLC): 8.36 µM; TGI (A549 NSCLC): 41.7 µM; GI50 (UACC-257 melanoma): 1.4 µM; TGI (UACC-257 melanoma): 15.3 µM; GI50 (HCC-2998 colon): 0.356 µM; TGI (HCC-2998 colon): 1.83 µM; GI50 (NCI-H226 lung): 5.81 µM; TGI (NCI-H226 lung): 25.5 µM; GI50 (HT29 colon): 1.51 µM; TGI (HT29 colon): 17.3 µM; GI50 (U251 CNS): 2.45 µM; TGI (U251 CNS): 13 µM; GI50 (IGROV1 ovarian): 5.1 µM; TGI (IGROV1 ovarian): > 48.4 µM; GI50 (UO-31 renal): 3.46 µM; TGI (UO-31 renal): > 39.9 µM; GI50 (NCI-H522 lung): 1.11 µM; GI50 (PC-3 prostate): 2.6 µM; TGI (PC-3 prostate): 21.8 µM; GI50 (DU-145 prostate): 0.747 µM; TGI (DU-145 prostate): 2.64 µM; GI50 (T-47D breast): 0.267 µM; TGI (T-47D breast): 20.1 µM; GI50 (SK-MEL-5 melanoma): 0.163 µM; TGI (SK-MEL-5 melanoma): 0.388 µM; GI50 (MDA-MB-231 breast): 2.7 µM; TGI (MDA-MB-231 breast): 18.4 µM; GI50 (MDA-MB-435): 0.196 µM; TGI (MDA-MB-435): 0.652 µM; GI50 (HOP-62 NSCLC): 15.1 µM; TGI (HOP-62 NSCLC): 53.1 µM; GI50 (SW-620 colon): 0.349 µM; TGI (SW-620 colon): 14.9 µM; GI50 (OVCAR-3 ovarian): 0.191 µM; TGI (OVCAR-3 ovarian): 0.583 µM; GI50 (RXF 393 renal): 0.548 µM; TGI (RXF 393 renal): 10.7 µM; GI50 (HL-60(TB) leukemia): 0.285 µM; TGI (HL-60(TB) leukemia): 1.78 µM; GI50 (M14 melanoma): 0.831 µM; TGI (M14 melanoma): 12.7 µM; GI50 (SNB-75 CNS): 5.44 µM; TGI (SNB-75 CNS): 23.5 µM; GI50 (NCI-H460 lung): 21.7 µM; TGI (NCI-H460 lung): 58.3 µM; GI50 (OVCAR-4 ovarian): 9.89 µM; TGI (OVCAR-4 ovarian): 38.4 µM; GI50 (A498 renal): 2.38 µM; TGI (A498 renal): 10.7 µM; GI50 (HS 578T breast): 1.39 µM; GI50 (MCF7 breast): 0.477 µM; TGI (MCF7 breast): 8.2 µM; GI50 (SF-268 CNS): 3.53 µM; TGI (SF-268 CNS): 25.9 µM; GI50 (SR leukemia): 1.03 µM; TGI (SR leukemia): 5.41 µM; GI50 (SN12C renal): 2.08 µM; TGI (SN12C renal): 12.6 µM; GI50 (SK-MEL-28 melanoma): 1.12 µM; TGI (SK-MEL-28 melanoma): 16.2 µM; GI50 (MOLT-4 leukemia): 0.326 µM; TGI (MOLT-4 leukemia): 2.21 µM; GI50 (SF-295 CNS): 3.66 µM; TGI (SF-295 CNS): 19.4 µM; GI50 (OVCAR-5 ovarian): 3.22 µM; TGI (OVCAR-5 ovarian): 10 µM; GI50 (COLO 205 colon): 0.557 µM; TGI (COLO 205 colon): 24.8 µM; GI50 (HCT-15 colon): 0.629 µM; TGI (HCT-15 colon): 10.4 µM; GI50 (UACC-62 melanoma): 0.904 µM; TGI (UACC-62 melanoma): 15 µM; GI50 (MALME-3M melanoma): 0.0531 µM; TGI (MALME-3M melanoma): 0.708 µM; GI50 (SK-MEL-2 melanoma): 13.2 µM; TGI (SK-MEL-2 melanoma): 58.9 µM; GI50 (CAKI-1 renal): 0.22 µM; TGI (CAKI-1 renal): 1.12 µM; GI50 (KM12 colon): 2.77 µM; TGI (KM12 colon): 13.8 µM; GI50 (SF-539 CNS): 0.49 µM; TGI (SF-539 CNS): 1.28 µM; GI50 (NCI/ADR-RES ovarian): 0.89 µM; TGI (NCI/ADR-RES ovarian): 3.07 µM; GI50 (RPMI-8226 leukemia): 0.33 µM; TGI (RPMI-8226 leukemia): 2.16 µM; GI50 (ACHN renal): 0.602 µM; TGI (ACHN renal): 3.62 µM; GI50 (K-562 leukemia): 0.342 µM; TGI (K-562 leukemia): 12.9 µM
